Legend:
[1] = test system: luciferase (luc) expressing TRAMP-C1 cells; test: TRAMP-C1 cell survival after single dose irradiation (bioluminescence, 96-well); format: cell-based, mouse; settings: for survival (% of bioluminescence before irradiation): single 8 Gy dose, drugs from 4 days after irradiation for 7 days, cinaciguat, p62 inducer, enzalutamide 1 μM, 8-bromo-cGMP 100 μM, DETA-NONOate 100 M (so in the source); for effect on irradiation-induced cell death: single dose 8 Gy irradiation, TRAMP-C1 cells, preliminary studies
Procedure: FIG. 4. The effect of single-dose and fractionated irradiation on TRAMP-C1 cell survival. A) Cells were plated at 5,000 cells/well in 96-well plates and subjected to single dose irradiation of 0 or 8 Gy. Four days following irradiation cells were treated with cinaciguat (1 μM), p62 inducer (1 μM), enzalutamide (1 μM), DETA-NONOate ([…]), 8-bromo-cGMP (100 μM) or vehicle (0.1% DMSO) for 1 week. Bioluminescence was measured before and after irradiation, and following drug treatment. […] B) Determination of 6 Gy as the optimal 5-day fractionated radiation dose based on cell survival.
Effect of drugs targeting NO·-cGMP pathway, mitophagy and AR signaling on TRAMP-C1 survival after single dose irradiation and determination of optimal fractionated irradiation protocol. To assess whether promoting NO·-cGMP signaling, induction of mitophagy or AR inhibition would enhance the effect of radiation treatment, the effect of these different drugs on cultured luciferase (luc) expressing TRAMP-C1 cells was examined in a 96-well plate format. Bioluminescence was assessed before irradiation after which the cells were exposed to a single 8 Gy radiation dose. Four days after irradiation cells were treated with the different drugs for a further 7 days. […] To determine the optimal fractionated irradiation dosing protocol, fractionated irradiation protocols were examined in cultured cells over a 5-day period. […] Therefore, 6 Gy per day for 5 days can be used as a dosing protocol.
Cell culture. Luciferase expressing TRAMP-C1 cells may be maintained in DMEM supplemented with 10% FBS, 1% PenStrep, 5 μg/ml insulin and 10 nM dehydroisoandrosterone and used at 10-15 passages. For experiments in Examples 1-3 cells may be plated at 5,000 cells/well in 96-well plates.
Bioluminescence in vitro and in vivo imaging. Cells may be treated with 150 μM luciferin D and immediately placed in Tecan SPECTRA Fluor Plus plate reader for bioluminescence measurement. Readings may be averaged for each group of cells (n≥ 8) and background (empty well readings) subtracted. Mice may be anesthetized with avertin (300 mg/kg, IP), depilated and injected with 150 mg/kg luciferin D, IP. They may be […] in a BioRad ChemiDoc MP imaging system in the supine position. Bioluminescence may be imaged for 600 sec using the Chemi Hi sensitivity protocol, intensity expressed colorimetrically, superimposed over images of the mice.

[2] = test system: mouse bladder with chronic radiation cystitis; test: Chronic radiation cystitis in mice: cystometry (CMG) and bladder collagen staining; format: in vivo
Source text: FIG. 12 Effects of cinaciguat on a mouse bladder with chronic radiation cystitis. A) Cystometry (CMG), non-irradiated mouse. B) CMG, 9 weeks following bladder irradiation (10 Gy). C) CMG, irradiation+daily gavage for 2 weeks with cinaciguat. D) Active and (E-F) passive length-tensions from irradiated+vehicle (red) vs. irradiated+cinaciguat (blue) bladder strips. G-I) Bladder cross-sections stained with Verhoeff Van Gieson solution; collagen is stained pink. J) Collagen, % area of the bladder wall, N=4. K) bladder weight in mg, control vs. irradiated (irr)>9 wks; N=5 ea.
Furthermore, irradiation decreases bladder weight by approximately 30% that could be attributed to muscle atrophy (FIG. 12 (K)).

[3] = test system: bladder of CyB5R3 smooth muscle conditional knockout mice; settings: acute intraperitoneal injection; cited from earlier work
[4] = Blood pressure and heart rate under cinaciguat treatment; format: in vivo, mice
[5] = test system: sGCα1, Bcl-2/BAX and NF-κβ; test: Immunolocalization of sGCα1, Bcl-2/BAX and NF-κβ in orthotopic TRAMP-C1 tumor sections; format: in vivo, mouse; settings: fractionated irradiation plus 1 mg/kg/day for two weeks
Procedure: FIGS. 7A and 7B. Alterations in the sGCα1, Bcl-2/BAX ratio and NF-κβ nuclear localization in prostate tumors from non-irradiated mice, and irradiated mice treated with cinaciguat or p62 inducer based on immunolabeling intensity. A)-C) sGC α1 immunolabeling in A) non-irradiated orthotopic TRAMP-C1 tumors. B) orthotopic tumor from mouse receiving fractionated irradiation followed by two weeks of cinaciguat (1 mg/kg/day) treatment. C) orthotopic tumor from mouse receiving fractionated irradiation followed by two weeks of p62 mitophagy inducer (1 mg/kg/day) treatment. D)-F) Immunolabeling for Bcl-2 of D) non-irradiated orthotopic TRAMP-C1 tumor. E) orthotopic tumor from mouse receiving fractionated irradiation and cinaciguat treatment. F) orthotopic tumor from mouse receiving fractionated irradiation and p62 mitophagy inducer treatment. G-I) Immunolabeling for NF-κβ of G) non-irradiated orthotopic TRAMP-C1 tumor. H) orthotopic tumor from mouse receiving fractionated irradiation and cinaciguat treatment. I) orthotopic tumor of mouse receiving fractionated irradiation and p62 mitophagy inducer treatment. J) Bar chart for ratio of sGCα1 positive area to total cell area. K) Bar chart of Bcl-2 positive staining versus BAX positive staining in sequential sections from each group. […] Green fluorescence—immunolabeling, Blue—DAPI, nuclei. […]

[6] = given via i.v. drip; cited from earlier work
[7] = test system: Bcl-2/BAX ratio; settings: aged mice, reversal of benign prostatic hyperplasia; previously demonstrated; cited from earlier work
[8] = test system: orthotopic TRAMP-C1 tumors; test: Orthotopic TRAMP-C1 tumors after fractionated irradiation, prostate tissue weight; format: in vivo, C57BI/6 mice; settings: 2 Gy fractions x 5 days; after one week osmotic pump 1 mg/kg/day for 14 days; vs irradiation alone
Procedure: FIG. 5. TRAMP-C1 orthotopic tumors and the effects of irradiation. A) TRAMP-C1 cells (10^7 cells/100 μl) were injected bilaterally into the ventrolateral prostatic lobes to create the orthotopic tumor mouse model. […] B) TRAMP-C1 tumor in a non-irradiated mouse 5 weeks after cell injection. C) Tumor following fractionated irradiation (2 Gy×5 days, starting 4 weeks post injection). D) Prostate wet weight in control, non-irradiated and irradiated tumor bearing animals.
FIG. 6. Bioluminescence imaging of prostate tumors and prostate size assessment following treatments. A) Image of colorimetrically expressed bioluminescence intensity superimposed over the mouse image. B) Prostates were excised from non-injected control, injected non-irradiated and injected irradiated (2 Gy×5 days) mice with or without treatments (P62 inducer or cinaciguat, 1 mg/kg/day for 2 weeks by ALZET pumps starting 1 week post irradiation). C) Timeline of tumor growth based on preliminary data.
Development of orthotopic TRAMP-C1 tumors in C57BI/6 mice and the effect of fractionated irradiation. […] At the conclusion of the treatment, tumor weights were evaluated. Without any intervention (drug or irradiation), there was a significant increase in tumor mass evaluated as total prostate tissue weight (FIG. 6 (B)).

For `CNC(=O)c1ccc(N2C(=S)N(c3ccc(C#N)c(C(F)(F)F)c3)C(=O)C2(C)C)cc1F` [enzalutamide], the “survival (% of bioluminescence before irradiation)” value [1] was 80±11% and the “effect on irradiation-induced cell death” value [1] was “protected the cells and not”.

For `NCCN(CCN)/[N+]([O-])=N/O` [DETA-NoNoate], the “survival (% of bioluminescence before irradiation)” value [1] was 62±13%, the “effect on irradiation-induced cell death” value ([1]; listed as DETA NoNoate) was “not” and the “effect on irradiation-induced cell death” value ([1]; listed as DETA-NONOate) was “did not enhance irradiation-induced cell death”.

For `Nc1nc2c(nc(Br)n2[C@@H]2O[C@@H]3COP(=O)(O)O[C@H]3[C@H]2O)c(=O)[nH]1` [8-bromo-cGMP], the “survival (% of bioluminescence before irradiation)” value [1] was 65±7% and the “effect on irradiation-induced cell death” value [1] was “did not enhance irradiation-induced cell death”.

With `O=C(O)CCCCN(CCc1ccccc1OCc1ccc(CCc2ccccc2)cc1)Cc1ccc(C(=O)O)cc1` [cinaciguat, 4-({(4-carboxybutyl)[2-(2-{[4-(2-phenylethyl)phenyl]methoxy}phenyl)ethyl]amino}methyl) benzoic acid] the “bladder wall structure (collagen staining)” value ([2]; chronically irradiated mice, Verhoeff Van Gieson staining) was “bladder wall structure similar to non-irradiated controls”, the CMG profile ([2]; daily gavage 10 mg/kg/day starting 7 weeks post irradiation (10 Gy), 2 weeks) was “normalized the CMG profile” and the “collagen content of bladder wall” value ([2]; doubling of collagen 9 weeks post irradiation) was “reversed”. For the same molecule, the “intercontractile interval (ICI)” value [3] was “increased ICI”, the non-voiding contractions [3] was “eliminated non-voiding contractions” and the “effect on blood pressure” value ([4]; infused post irradiation 0.1-1 mg/kg/day for 28 days via osmotic pumps, preliminary data) was “without adversely affecting blood pressure”. The “effects on blood pressure and heart rate” value ([4]; once-a-day oral 10 mg/kg) was “only transient effects on blood pressure and heart rate”, the “sGCα1, Bcl-2/BAX and NF-κβ immunolabeling in tumor” value [5] was “all three markers were reduced” and the “blood pressure effect (hypotension)” value [6] was “induced hypotension”. For the same molecule, the Bcl-2/BAX ratio [7] was “decreasing the Bcl-2/BAX ratio”, the “tumor mass evaluated as total prostate tissue weight” value [8] was “marked decrease compared to irradiation alone” and the “survival (% of bioluminescence before irradiation)” value [1] was 31±13%. For the same molecule, the “effect on irradiation-induced cell death” value [1] was “potentiated” and the “effect on irradiation-induced cell death” value ([1]; listed as Cinaciguat) was “most effective in promoting irradiation-induced tumor cell death”.
